Measured values taken from patent publication US10913736B2 (UNIVERSITY OF WASHINGTON, priority 2014, dated 2021).
Where “and” joins values, the source holds several entries; their conditions need not be identical. Identical values can stand only once. Like-named read-outs stand apart in the source and are kept apart here.

Key:
MetRS (T. brucei) = MetRS (T. brucei) (Trypanosoma brucei brucei, UniProt Q38C91); assay: MetRS (T. brucei) ATP depletion assay using Kinase-Glo; type: biochemical
T. brucei = assay: Growth inhibition assay of T. brucei cell cultures (Alamar Blue, 48 h); type: cell-based
[1] = Trypanosoma brucei; read-out: B) T. brucei EC50

MetRS (T. brucei), sequence (Q38C91 entry or part of it): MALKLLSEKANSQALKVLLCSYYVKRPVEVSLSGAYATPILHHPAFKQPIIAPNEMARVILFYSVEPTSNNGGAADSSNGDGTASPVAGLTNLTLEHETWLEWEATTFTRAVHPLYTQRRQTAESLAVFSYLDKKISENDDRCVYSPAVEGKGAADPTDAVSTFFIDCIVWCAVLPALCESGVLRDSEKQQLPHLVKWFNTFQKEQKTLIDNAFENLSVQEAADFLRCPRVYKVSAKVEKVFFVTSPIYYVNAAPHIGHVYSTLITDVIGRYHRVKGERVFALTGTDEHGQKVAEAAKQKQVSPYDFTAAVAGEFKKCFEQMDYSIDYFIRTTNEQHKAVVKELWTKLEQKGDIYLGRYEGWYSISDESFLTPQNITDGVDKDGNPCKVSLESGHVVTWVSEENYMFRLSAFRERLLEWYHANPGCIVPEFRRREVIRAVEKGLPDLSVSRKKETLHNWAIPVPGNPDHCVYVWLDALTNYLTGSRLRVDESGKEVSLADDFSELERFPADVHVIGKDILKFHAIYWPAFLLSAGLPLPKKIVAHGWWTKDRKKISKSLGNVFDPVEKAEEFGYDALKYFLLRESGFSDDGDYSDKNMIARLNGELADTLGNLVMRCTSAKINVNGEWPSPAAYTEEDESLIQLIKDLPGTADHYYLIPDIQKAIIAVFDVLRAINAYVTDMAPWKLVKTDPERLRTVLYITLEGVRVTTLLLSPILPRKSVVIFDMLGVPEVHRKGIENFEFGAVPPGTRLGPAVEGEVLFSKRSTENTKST

| Compound | IC50 (MetRS (T. brucei)) | EC50 (T. brucei; [1]) | EC50 (T. brucei; read-out: B) T. brucei EC50) |
| --- | --- | --- | --- |
| CCOc1c(Cl)cc(Cl)cc1CN[C@H]1CCCN(c2nc3nc(Cl)ccc3[nH]2)C1 [Compound 1920, (S)-1-(5-chloro-1H-imidazo[4,5-b]pyridin-2-yl)-N-(3,5-dichloro-2-ethoxybenzyl)piperidin-3-amine] | 0.016 µM | 0.111 µM | – |
| O=C(Cc1ccc(Cl)cc1Cl)NCc1nc2ncc(Cl)cc2[nH]1 [Compound 1878, N-({6-chloro-1H-imidazo[4,5-b]pyridin-2-yl}methyl)-2-(2,4-dichlorophenyl)acetamide] | 0.195 µM | 7.52 µM | – |
| Fc1ccc2[nH]c(C3CCCN(CCc4cc(Cl)cc(Cl)c4)C3)nc2n1 (centres unmarked) [Compound 1798, 5-fluoro-2-(1-(3,5-dichlorophenethyl)piperidin-3-yl)-1H-imidazo[4,5-b]pyridine] | > 10 µM | 1.23 µM | – |
| Clc1cc(Cl)cc(CN[C@@H]2CCCN(c3nc4nc(Cl)ccc4[nH]3)C2)c1 [Compound 1855, (R)-1-(5-chloro-1H-imidazo[4,5-b]pyridin-2-yl)-N-(3,5-dichlorobenzyl) piperidin-3-amine] | 0.192 µM | 0.999 µM | – |
| Clc1cc(Cl)cc(CNc2cccc(-c3nc4ccc(Cl)cc4[nH]3)c2)c1 [Compound 1952, 3-(6-chloro-1H-1,3-benzodiazol-2-yl)-N-[(3,5-dichlorophenyl)methyl]aniline] | 2.28 µM and 1.74 µM | 0.187 µM | 0.367 µM |
| Clc1cc(Cl)cc(CO[C@H]2CCCN(c3nc4nc(Cl)c(Br)cc4[nH]3)C2)c1 [Compound 1904, (S)-6-bromo-5-chloro-2-(3-((3,5-dichlorobenzyl)oxy)piperidin-1-yl)-1H-imidazo[4,5-b]pyridine] | > 10 µM | > 20 µM | – |
| Clc1cc(Cl)cc(CO[C@H]2CCCN(c3nc4nc(Cl)ccc4[nH]3)C2)c1 [Compound 1898] | 0.196 µM | 8.8 µM | – |
| O=C(CCNc1ccc(Cl)cc1Cl)NCc1nc2ccccc2[nH]1 [Compound 1763, N-(1H-Benzoimidazol-2-ylmethyl)-3-(2,4-dichloro-phenylamino)-propionamide] | 0.168 µM | 12.7 µM | – |
| CC(C)Oc1c(Cl)cc(Cl)cc1CN[C@H]1CCCN(c2nc3nc(Cl)ccc3[nH]2)C1 [Compound 1931, (S)-1-(5-chloro-1H-imidazo[4,5-b]pyridin-2-yl)-N-(3,5-dichloro-2-isopropoxybenzyl)piperidin-3-amine] | 0.305 µM | 1.7 µM | – |
| Clc1cc(Cl)c(Cl)c(CN[C@H]2CCCN(c3nc4nc(Cl)c(Br)cc4[nH]3)C2)c1 [Compound 1905, (S)-1-(6-bromo-5-chloro-1H-imidazo[4,5-b]pyridin-2-yl)-N-(2,3,5-trichlorobenzyl)piperidin-3-amine] | 4.31 µM | > 20 µM | – |
| Clc1ccc(CN[C@@H]2CCN(c3nc4ccc(Cl)nc4[nH]3)C2)c(Cl)c1 [Compound 1848, (3R)-1-{5-chloro-3H-imidazo[4,5-b]pyridin-2-yl}-N-[(2,4-dichlorophenyl}methyl]pyrrolidin-3-amine] | 0.847 µM | 10.6 µM | – |
| Clc1cc(Cl)cc(CN2CCC[C@H](c3nc4nc(Cl)ccc4[nH]3)C2)c1 [Compound 1868, (S)-5-chloro-2-(1-(3,5-dichlorobenzyl)piperidin-3-yl)-1H-imidazo[4,5-b]pyridine] | 0.077 µM | 1.08 µM | – |
| CC(=O)N(Cc1cc(Cl)cc(Cl)c1)N1CCCC(c2nc3cc(F)ccc3[nH]2)C1 (centres unmarked) [Compound 1833, N-[(3,5-dichlorophenyl)methyl]-N-[3-(5-fluoro-1H-1,3-benzodiazol-2-yl)piperidin-1-yl]acetamide] | > 10 µM | > 20 µM | – |
| OC1NC(Cc2ccc(Cl)cc2Cl)=CN1Cc1nc2ccccc2[nH]1 (centres unmarked) [Compound 1936, 3-((1H-benzo[d]imidazol-2-yl)methyl)-5-(2,4-dichlorobenzyl)-2,3-dihydro-1H-imidazol-2-ol] | 0.065 µM | 1.83 µM | – |
| Clc1cc(Cl)cc(CN2CCCC(Cc3nc4nc(Cl)ccc4[nH]3)C2)c1 (centres unmarked) [Compound 1814, 5-chloro-2-((1-(3,5-dichlorobenzyl)piperidin-3-yl)methyl)-1H-imidazo[4,5-b]pyridine] | 3.4 µM | 7.21 µM | – |
| CC(Cc1nc2ccc(Br)cc2[nH]1)NCc1cc(Cl)cc(Cl)c1 (centres unmarked) [Compound 1821, [1-(6-bromo-1H-1,3-benzodiazol-2-yl)propan-2-yl][(3,5-dichlorophenyl)methyl]amine] | 0.054 µM | 1.67 µM | – |
| Clc1cc(Cl)cc(CNC2CCCC(c3nc4cc(Cl)cnc4[nH]3)C2)c1 (centres unmarked) [Compound 1841, 3-(6-chloro-3H-imidazo[4,5-b]pyridin-2-yl)-N-(3,5-dichlorobenzyl) cyclohexanamine] | 6.3 µM | 3.69 µM | – |
| Fc1ccc2[nH]c(C3CCCC(NCc4cc(Cl)cc(Cl)c4)C3)nc2c1 (centres unmarked) [Compound 1839, N-(3,5-dichlorobenzyl)-3-(5-fluoro-1H-benzo[d]imidazol-2-yl) cyclohexanamine] | 3.68 µM | 2.32 µM | – |
| O=C1CN(Cc2ccc(Cl)cc2Cl)CCN1Cc1nc2ccccc2[nH]1 [Compound 1747, 1-((1H-benzo[d]imidazol-2-yl)methyl)-4-(2,4-dichlorobenzyl)piperazin-2-one] | > 10 µM | > 10 µM | – |
| C[C@H](Cc1nc2ccc(Cl)cc2[nH]1)NCc1cc(Cl)cc(Cl)c1 [Compound 1806, [(2R)-1-(6-chloro-1H-1,3-benzodiazol-2-yl)propan-2-yl][(3,5-dichlorophenyl)methyl]amine] | 7.63 µM and 9.88 µM | 3.33 µM | – |
| Clc1cc(Cl)cc(CN[C@H]2CCN(c3nc4ccc(Cl)nc4[nH]3)C2)c1 [Compound 1845, (3S)-1-{5-chloro-3H-imidazo[4,5-b]pyridin-2-yl}-N-[(3,5-dichlorophenyl)methyl]pyrrolidin-3-amine] | 0.047 µM | 1.54 µM | – |
| O=C1CN(Cc2cc(Cl)cc(Cl)c2)CCN1Cc1nc2ccccc2[nH]1 [Compound 1748, 1-((1H-benzo[d]imidazol-2-yl)methyl)-4-(3,5-dichlorobenzyl)piperazin-2-one] | > 10 µM | > 10 µM | – |
| O=C(Cc1cc(Cl)cc(Cl)c1)N1CCCC(c2nc3ccccc3[nH]2)C1 (centres unmarked) [Compound 1732, 1-(3-(1H-benzo[d]imidazol-2-yl)piperidin-1-yl)-2-(3,5-dichlorophenyl)ethanone] | 0.288 µM | > 5 µM | – |
| CC(C)[C@@H](Cc1nc2ccc(Cl)cc2[nH]1)NCc1cc(Cl)cc(Cl)c1 [Compound 1828, [(2R)-1-(6-chloro-1H-1,3-benzodiazol-2-yl)-3-methylbutan-2-yl][(3,5-dichlorophenyl)methyl]amine] | > 10 µM | 7.41 µM | – |
| Clc1cc(Cl)cc(CN[C@@H]2CCC[C@H](c3nc4nc(Cl)ccc4[nH]3)C2)c1 [Compound 1854, (1R,3S)-3-(5-chloro-1H-imidazo[4,5-b]pyridin-2-yl)-N-(3,5-dichlorobenzyl)cyclohexanamine] | 0.106 µM | 0.58 µM | – |
| CNCc1cc(Cl)cc(Cl)c1O/C=C/C(=O)NCc1nc2ccccc2[nH]1 [Compound 1779, (2E)-N-(1H-1,3-benzodiazol-2-ylmethyl)-3-{2,4-dichloro-6-[(methylamino)methyl]phenoxy}prop-2-enamide] | > 10 µM | > 20 µM | – |
